According to the supplement of paper PMC10307832:

Tests used:
Experiment in all cases: relative viability (nuclei count vs DMSO), 5 days (fraction); higher = more cells survive
FG-4592 + Dasatinib = compound: Cc1nc(C(=O)NCC(=O)O)c(O)c2ccc(Oc3ccccc3)cc12 [FG-4592] + Cc1nc(Nc2ncc(C(=O)Nc3c(C)cccc3Cl)s2)cc(N2CCN(CCO)CC2)n1 [Dasatinib] (partner 0.075 µM)
In short: (§1)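 For relative viability, nuclei counts in treated wells were divided by those in vehicle wells. Lung cancer cell lines had been pin-tool dosed in 1536-well plates the day after seeding and cultured for 5 days, then fixed and stained in one step (final 0.05% Triton X-100, 1% formaldehyde, 1 ug/ml Hoechst) and imaged at 4×. Doses were one drug alone or a fixed anchor-drug dose plus five library-drug doses (not always all listed) in √10 steps, and values are duplicate-plate medians.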

IU1-47 + Navitoclax = compound: CC1=CC(=C(N1C2=CC=C(C=C2)Cl)C)C(=O)CN3CCCCC3 [IU1-47] + CC1(C)CCC(c2ccc(Cl)cc2)=C(CN2CCN(c3ccc(C(=O)NS(=O)(=O)c4ccc(N[C@H](CCN5CCOCC5)CSc5ccccc5)c(S(=O)(=O)C(F)(F)F)c4)cc3)CC2)C1 [Navitoclax] (partner 0.5 µM)
In short: as §1

IU1-47 + Lapatinib = compound: CC1=CC(=C(N1C2=CC=C(C=C2)Cl)C)C(=O)CN3CCCCC3 [IU1-47] + CS(=O)(=O)CCNCc1ccc(-c2ccc3ncnc(Nc4ccc(OCc5cccc(F)c5)c(Cl)c4)c3c2)o1 [Lapatinib] (partner 2 µM)
In short: as §1

FG-4592 + Luminespib = compound: Cc1nc(C(=O)NCC(=O)O)c(O)c2ccc(Oc3ccccc3)cc12 [FG-4592] + CCNC(=O)c1noc(-c2cc(C(C)C)c(O)cc2O)c1-c1ccc(CN2CCOCC2)cc1 [Luminespib] (partner 0.01 µM)
In short: as §1

| Cell Line | relative viability (FG-4592 + Dasatinib; first compound 0.08 µM) | relative viability (FG-4592 + Dasatinib; first compound 0.253 µM) | relative viability (FG-4592 + Dasatinib; first compound 0.8 µM) | relative viability (FG-4592 + Dasatinib; first compound 2.53 µM) | relative viability (FG-4592 + Dasatinib; first compound 8 µM) | relative viability (IU1-47 + Navitoclax; first compound 0.08 µM) | relative viability (IU1-47 + Navitoclax; first compound 0.253 µM) | relative viability (IU1-47 + Navitoclax; first compound 0.8 µM) | relative viability (IU1-47 + Navitoclax; first compound 2.53 µM) | relative viability (IU1-47 + Navitoclax; first compound 8 µM) | relative viability (IU1-47 + Lapatinib; first compound 0.08 µM) | relative viability (IU1-47 + Lapatinib; first compound 0.253 µM) | relative viability (IU1-47 + Lapatinib; first compound 0.8 µM) | relative viability (IU1-47 + Lapatinib; first compound 2.53 µM) | relative viability (IU1-47 + Lapatinib; first compound 8 µM) | relative viability (FG-4592 + Luminespib; first compound 0.08 µM) | relative viability (FG-4592 + Luminespib; first compound 0.253 µM) | relative viability (FG-4592 + Luminespib; first compound 0.8 µM) | relative viability (FG-4592 + Luminespib; first compound 2.53 µM) | relative viability (FG-4592 + Luminespib; first compound 8 µM) |
| --- | --- | --- | --- | --- | --- | --- | --- | --- | --- | --- | --- | --- | --- | --- | --- | --- | --- | --- | --- | --- |
| NCI-H2170 | 0.592 | 0.478 | 0.412 | 0.59 | 0.497 | 0.74 | 0.734 | 0.684 | 0.525 | 0.577 | 0.286 | 0.297 | 0.289 | 0.301 | 0.263 | 0.653 | 0.62 | 0.538 | 0.606 | 0.501 |
| NCI-H460 | 0.527 | 0.511 | 0.43 | 0.457 | 0.368 | 1.3 | 1.08 | 1.36 | 1.02 | 1.38 | 1.2 | 1.14 | 0.997 | 0.655 | 0.7 | 0.0351 | 0.0212 | 0.0354 | 0.0343 | 0.0187 |
| HCC-15 | 0.65 | 0.601 | 0.536 | 0.554 | 0.681 | 0.829 | 0.721 | 0.815 | 0.626 | 0.589 | 0.897 | 0.854 | 0.999 | 0.677 | 0.798 | 0.403 | 0.371 | 0.26 | 0.302 | 0.253 |
| EPLC-272H | 0.389 | 0.302 | 0.251 | 0.412 | 0.334 | 1.19 | 1.07 | 1.07 | – | 1.12 | 1.16 | 0.925 | 0.965 | – | 0.528 | 0.455 | 0.241 | 0.212 | 0.295 | 0.228 |
